In article PMC8933873 (European Journal of Medicinal Chemistry, 2022):
Where two headings read alike, the source gives them in different places.

Experiments:
[1] = tested on: SARS-CoV-2 virus strain hCoV-19/Taiwan/4/2020; assay type: cell-based
[2] = GI permeability, 50 μM, 25 °C, 3 h
[3] = tested on: SARS-CoV-2; experiment: Quantification of SARS-CoV-2 viral load via antibody staining; assay type: cell-based
[4] = tested on: COVID-19; conditions: non-hospitalized adult patients with mild-to-moderate COVID-19, phase 3 study; cited from earlier work
[5] = tested on: TMEM16F; assay type: cell-based; conditions: 1 h treatment, Vero E6 cells, annexin XII
[6] = tested on: SARS-CoV-2; conditions: read-out: Anti-SARS-CoV-2 IC50; literature value; cited from earlier work
[7] = in vitro; conditions: PAMPA

O=C(Nc1ccccc1)c1cc(Cl)ccc1O [Compound 2, 5-Chlorosalicylanilide]
antiviral efficacy in CPE screening [1]: antiviral efficacy that were superior to their cytotoxicity
PAMPA [2]: 16.0 10^−6 cm/s

O=C(Nc1ccc([N+](=O)[O-])cc1Cl)c1ccccc1O [Compound 18, N-(2-chloro-4-nitrophenyl)-2-hydroxybenzamide]
antiviral efficacy in CPE screening [1]: antiviral efficacy that were superior to their cytotoxicity
PAMPA [2]: 15.3 10^−6 cm/s

5-Chloro-N-(4-hydroxybenzyl)-2-hydroxybenzamide [Compound 14]
antiviral efficacy in CPE screening [1]: inactive
PAMPA [2]: 33.1 10^−6 cm/s

Cc1ccc(CNC(=O)c2cc(Cl)ccc2O)cc1 [Compound 16, 5-Chloro-N-(4-methylbenzyl)-2-hydroxybenzamide]
antiviral efficacy in CPE screening [1]: did not show viral inhibition
PAMPA [2]: 42.6 10^−6 cm/s

O=C(Nc1ccc(C(F)(F)F)cc1)c1cc(Cl)ccc1O [Compound 10, 5-Chloro-N-(4-trifluoromethylphenyl)-2-hydroxybenzamide]
antiviral efficacy in CPE screening [1]: antiviral efficacy that were superior to their cytotoxicity
PAMPA [2]: 6.9 10^−6 cm/s

O=C(Nc1ccc([N+](=O)[O-])cc1Cl)c1ccccc1 [Compound 19, N-(2-chloro-4-nitrophenyl)benzamide]
PAMPA [2]: 42.2 10^−6 cm/s

O=C(Nc1cccc(Cl)c1)c1cc(Cl)ccc1O [Compound 6, 5-Chloro-N-(3-chlorophenyl)-2-hydroxybenzamide]
antiviral efficacy in CPE screening [1]: antiviral efficacy that were superior to their cytotoxicity
PAMPA [2]: 8.6 10^−6 cm/s

O=C(Nc1cccc(F)c1)c1cc(Cl)ccc1O [Compound 9, 5-Chloro-N-(3-fluorophenyl)-2-hydroxybenzamide]
antiviral efficacy in CPE screening [1]: inactive
PAMPA [2]: 3.7 10^−6 cm/s

O=C(Nc1ccc([N+](=O)[O-])c(Cl)c1)c1cc(Cl)ccc1O [Compound 5, 5-Chloro-N-(3-chloro-4-nitrophenyl)-2-hydroxybenzamide]
anti-SARS-CoV-2 activity relative to niclosamide [3]: 7 fold

O=C(Nc1cccc(C(F)(F)F)c1)c1cc(Cl)ccc1O [Compound 11, 5-Chloro-N-(3-trifluoromethylphenyl)-2-hydroxybenzamide]
antiviral efficacy in CPE screening [1]: antiviral efficacy that were superior to their cytotoxicity
PAMPA [2]: 4.2 10^−6 cm/s

O=C(Nc1cccc([N+](=O)[O-])c1)c1cc(Cl)ccc1O [Compound 4, 5-Chloro-N-(3-nitrophenyl)-2-hydroxybenzamide]
antiviral efficacy in CPE screening [1]: antiviral efficacy that were superior to their cytotoxicity
PAMPA [2]: 19.5 10^−6 cm/s

O=C(Nc1ccc(N2CCCCC2)cc1)c1cc(Cl)ccc1O [Compound 15, 5-Chloro-N-(4-(piperidin-1-yl)phenyl)-2-hydroxybenzamide]
antiviral efficacy in CPE screening [1]: inactive
PAMPA [2]: 43.3 10^−6 cm/s

O=C(Nc1ccc(O[C@@H]2O[C@H](CO)[C@@H](O)[C@H](O)[C@H]2O)cc1)c1cc(Cl)ccc1O [Compound 27, 5-Chloro-N-(4-phenyl-β-D-glucopyranoside)-2-hydroxybenzamide]
antiviral efficacy in CPE screening [1]: inactive
PAMPA [2]: 1.9 10^−6 cm/s

5-Chloro-N-(3-hydroxybenzyl)-2-hydroxybenzamide [Compound 13]
antiviral efficacy in CPE screening [1]: inactive
PAMPA [2]: 15.9 10^−6 cm/s

Cc1cccc(CNC(=O)c2cc(Cl)ccc2O)c1 [Compound 17, 5-Chloro-N-(3-methylbenzyl)-2-hydroxybenzamide]
antiviral efficacy in CPE screening [1]: did not show viral inhibition
PAMPA [2]: 28.4 10^−6 cm/s

Cc1ccc(C(=O)Nc2ccc([N+](=O)[O-])cc2Cl)c(O)c1 [Compound 21, 4-Methyl-N-(2-chloro-4-nitrophenyl)-2-hydroxybenzamide]
antiviral efficacy in CPE screening [1]: diminished
PAMPA [2]: 6.1 10^−6 cm/s

CC(C)C(=O)OC[C@H]1O[C@@H](n2ccc(NO)nc2=O)[C@H](O)[C@@H]1O [Molnupiravir]
reduction of the risk of hospitalization or death [4]: 30%

Cc1ccc(O)c(C(=O)Nc2ccc([N+](=O)[O-])cc2Cl)c1 [Compound 20, 5-Methyl-N-(2-chloro-4-nitrophenyl)-2-hydroxybenzamide]
antiviral efficacy in CPE screening [1]: diminished
PAMPA [2]: 20.9 10^−6 cm/s

O=C(Nc1ccc([N+](=O)[O-])cc1Cl)c1cc(Cl)ccc1O [Compound 1, 5-Chloro-N-(2-chloro-4-nitrophenyl)-2-hydroxybenzamide]
phosphatidylserine externalization triggered by ionomycin ([5]; 100 nM): significantly reduced the signal of phosphatidylserine on cell surface
PAMPA [2]: 8.5 10^−6 cm/s
IC50 [6]: 340 nM

CC(C)(C)c1cccc(NC(=O)c2cc(Cl)ccc2O)c1 [Compound 12, 5-Chloro-N-(3-tert-butylphenyl)-2-hydroxybenzamide]
antiviral efficacy in CPE screening [1]: antiviral efficacy that were superior to their cytotoxicity
PAMPA [2]: 18.7 10^−6 cm/s

Cc1c(O)cccc1C(=O)N[C@@H](CSc1ccccc1)[C@H](O)CN1C[C@H]2CCCC[C@H]2C[C@H]1C(=O)NC(C)(C)C [Nelfinavir]
phosphatidylserine externalization triggered by ionomycin ([5]; 500 nM): no inhibition

O=C(Nc1ccc(F)c(Cl)c1)c1cc(Cl)ccc1O [Compound 7, 5-Chloro-N-(3-chloro-4-fluorophenyl)-2-hydroxybenzamide]
antiviral efficacy in CPE screening [1]: diminished
PAMPA [2]: 11.5 10^−6 cm/s

O=C(Nc1ccc([N+](=O)[O-])cc1)c1cc(Cl)ccc1O [Compound 3, 5-Chloro-N-(4-nitrophenyl)-2-hydroxybenzamide]
Papp [7]: 12.4 ×10⁻⁶ cm/s
antiviral efficacy in CPE screening [1]: antiviral efficacy that were superior to their cytotoxicity

O=C(Nc1ccc([N+](=O)[O-])cc1Cl)c1cc(F)ccc1O [Compound 22, 5-Fluoro-N-(2-chloro-4-nitrophenyl)-2-hydroxybenzamide]
antiviral efficacy in CPE screening [1]: diminished
PAMPA [2]: 30.7 10^−6 cm/s

O=C(Nc1ccc(F)cc1)c1cc(Cl)ccc1O [Compound 8, 5-Chloro-N-(4-fluorophenyl)-2-hydroxybenzamide]
Papp [7]: 18.2 ×10⁻⁶ cm/s
antiviral efficacy in CPE screening [1]: inactive
